# How the values were obtained:
# [1] = Particle size, PDI and Zeta potential of lipid compound nanoparticles (DLS); format: physicochemical; details: LNP with pDNA-GFP-Luc, lipid compound:Cholesterol:DOPE:DSPE-PEG=40:48:10:2, N/P 24:1, pH=5.3
# Method: Lipid compounds 3-2-C8, 3-3-C8, 3-4-C8, 3-5-C8, 10-2-C8, 10-3-C8, 10-4-C8 and 10-5-C8 were used as nanocarrier materials to encapsulate pDNA-GFP-Luc to test the particle size (Size), polymer dispersion index (PDI) and Zeta potential of the lipid nanoparticles.
# Ionizable lipids 3-2-C8, 3-3-C8, 3-4-C8, 3-5-C8, 10-2-C8, 10-3-C8, 10-4-C8, 10-5-C8 and dioleoyl phosphatidyl ethanolamine (DOPE), cholesterol, distearoylphosphatidylacetamide-polyethylene glycol (DSPE-PEG) were dissolved in anhydrous ethanol at a certain concentration, the components were uniformly mixed according to a certain molar ratio of lipid compound:Cholesterol:DOPE:DSPE-PEG=40:48:10:2, at the same time, a proper amount of pDNA-GFP-Luc was dissolved in sodium acetate buffer (the volume of sodium acetate buffer was twice the total volume of lipid mixture, pH=5.3), and the pDNA-GFP-Luc dissolved in the buffer was taken into the lipid mixture solution, and quickly mixed to assemble into lipid nanoparticles, the mixed solution was incubated at room temperature for 15 min, and the particle size and potential were tested by dynamic light scattering instrument (DLS). The nitrogen-phosphorus ratio (N/P ratio) of ionizable lipid to pDNA (24:1) was the optimal ratio, that is, the molar ratio between the protonated amino group on the ionized lipid and the phosphate group on the DNA. 2) Analysis of experimental results:
# FIG. 11 is the particle size test diagram of nanoparticles prepared by lipid compounds. Table 2 is the Zeta potential test results of nanoparticles prepared by lipid compounds.
# The charge is 13.0±1.56-28.7±4.36 mV, which is consistent with the characteristics of lipid nanoparticles, the smaller particle sizes can exert the high permeability and long retention effect (EPR), leading to better accumulation in the tumor sites.
# [2] = In vivo RNA imaging (IVIS) of repRNA-Luc delivery after intramuscular injection; parameters: species or system C57BL/6 mice; details: for repRNA-Luc expression by IVIS: 3rd day after intramuscular injection, 150 ng repRNA-Luc, DSPC LNP; for course of expression values with time (IVIS total flux): after intramuscular injection of repRNA-Luc LNP
# Text: Ionizable lipid compounds 3-4-C8, 3-5-C8, 10-4-C8, 10-5-C8, and 11-4-C8 were used to deliver self-amplifying RNA (Rep RNA-Luc) encoding firefly luciferase (Luc) in C57BL/6 mice. After intramuscular injection in mice, the in vivo imaging system (IVIS) was used to detect on the 3rd, 5th, and 7th day after injection.
# 1) The specific steps are the same with the lipid compound delivering RNA test in performance test 3, the difference in this performance test, the experimental group: ionizable lipid compounds 3-4-C8, 3-5-C8, 10-4-C8, 10-5-C8 or 11-4-C8 and distearoyl phosphatidylcholine (DSPC), cholesterol (Cholesterol), distearoyl phosphatidylacetamide-polyethylene glycol (DSPE-PEG) or blank group are dissolved in anhydrous and non-enzymatic ethanol according to a certain concentration, the use of the ratio is ionizable lipid compounds 3-4-C8, 8-4-C8, 10-4-C8 or 11-4-C8:Cholesterol:DSPC:DSPE-PEG=40:48:10:2. A proper amount of repRNA-Luc was dissolved in sodium acetate buffer (the volume of sodium acetate buffer was twice the total volume of the lipid mixture, pH=5.3), the repRNA-Luc dissolved in the buffer was added into the lipid mixture solution and quickly mixed to assemble into lipid nanoparticles, the mixed solution was incubated at room temperature for 15 min, and then dialyzed in ultrapure water for 0.5 h using a dialysis bag (14000 MW), finally, 10% glucose solution was added to the lipid nanoparticle solution to adjust the osmotic pressure for intramuscular injection (LNP containing 150 ng of repRNA-Luc in each dose). Among them, the N/P ratio of ionizable lipid to mRNA (N/P ratio) is 24:1, which is the optimal ratio, that is, the molar ratio between the protonated amino group on the ionizable lipid and the phosphate group on the DNA.
# FIG. 18 is the detection map of the in vivo imaging system for lipid nanoparticles injected into mice. FIG. 19 is an injection time and total flux of the lipid compound.
Structure (SMILES),Zeta potential [1],repRNA-Luc expression by IVIS [2],course of expression values with time (IVIS total flux) [2]
CCCCCCCCC(CCCCCCCC)OC(=O)NCCOC(=O)CCN(CCC(=O)OCCNC(=O)OC(CCCCCCCC)CCCCCCCC)CCN1CCCC1 [3-2-C8],13.0 ± 1.56 mV,,
CCCCCCCCC(CCCCCCCC)OC(=O)NCCCCOC(=O)CCN(CCC(=O)OCCCCNC(=O)OC(CCCCCCCC)CCCCCCCC)CCN(C)C [10-4-C8],23.5 ± 4.87 mV,successfully expressed,increased with time
CCCCCCCCC(CCCCCCCC)OC(=O)NCCOC(=O)CCN(CCC(=O)OCCNC(=O)OC(CCCCCCCC)CCCCCCCC)CCN(C)C [10-2-C8],20.7 ± 2.77 mV,,
CCCCCCCCC(CCCCCCCC)OC(=O)NCCCCOC(=O)CCN(CCC(=O)OCCCCNC(=O)OC(CCCCCCCC)CCCCCCCC)CCN1CCCC1 [3-4-C8],20.2 ± 3.07 mV,successfully expressed,increased with time
